Here are results for five compounds from patent publication US12125561B2, “Determination of JAK-STAT3 pathway activity using unique combination of target genes” (InnoSIGN B.V., priority 2017, dated 2024).

What all share (type): cell-based
The test system of assay [1] is JAK-STAT3 cellular signaling pathway in EGFR mutant cells of lung cancer. The experiment in a line: JAK-STAT3 pathway activity, lung Bayesian network model, calibration on data set GSE57156. As to conditions: calibration samples, group 1; DMSO-treated cells considered active; FIG. 9.
Description: Herein, available expression data sets of EGFR mutant cells of lung cancer from data set GSE57156 were used.
(§1) Herein, an exemplary Bayesian network model as shown in FIG. 2 was used to model the transcriptional program of the JAK-STAT3 cellular signaling pathway in a simple manner. The model consists of three types of nodes: (a) a transcription factor (TF) element (with states “absent” and “present”) in a first layer 1; (b) target genes TG1, TG2, TGn (with states “down” and “up”) in a second layer 2, and; (c) measurement nodes linked to the expression levels of the target genes in a third layer 3. These can be microarray probesets PS1,1, PS1,2, PS1,3, PS2,1, PSn,1, PSn,m (with states “low” and “high”), as preferably used herein, but could also be other gene expression measurements such as RNAseq or RT-qPCR.
A suitable implementation of the mathematical model, herein, the exemplary Bayesian network model, is based on microarray data. The model describes (i) how the expression levels of the target genes depend on the activation of the TF element, and (ii) how probeset intensities, in turn, depend on the expression levels of the respective target genes. […]
Assay [2] concerns JAK-STAT3 cellular signaling pathway in PC9 NSCLC cells. In words: JAK-STAT3 pathway activity prediction, lung model, data set GSE67051, PC9. The settings on record: PC 9, treated for 8 days, group 1 vs group 2; FIG. 13.
Description: as §1
(§2) A suitable implementation of the mathematical model, herein, the exemplary Bayesian network model, is based on microarray data. The model describes (i) how the expression levels of the target genes depend on the activation of the TF element, and (ii) how probeset intensities, in turn, depend on the expression levels of the respective target genes. For the latter, probeset intensities may be taken from fRMA pre-processed Affymetrix HG-U133Plus2.0 microarrays, which are widely available from the Gene Expression Omnibus (GEO, www.ncbi.nlm.nih.gov/geo) and ArrayExpress (www.ebi.ac.uk/arrayexpress). […]
For assay [3], the system named is JAK-STAT3 cellular signaling pathway in epithelial cells from HaCaT cell lines. In words: JAK-STAT3 pathway activity prediction, lung model, data set GSE32975. The settings on record: EGF vs unstimulated control; gefitinib samples in group 6 and group 7; FIG. 11. An excerpt: Epithelial cells from HaCaT cell lines were stimulated with epidermal growth factor (EGF) in data set GSE32975. Each group represents one replica from the cell line.

In assay [4] the test system is JAK-STAT3 cellular signaling pathway in Ishikawa H cells (derived endometrial carcinomas). In words: JAK-STAT3 pathway activity prediction, lung model, data set GSE20854. The settings on record: FIG. 12. As for the experimental part: Ishikawa H cells (derived endometrial carcinomas) were dosed with either EGF (epidermal growth factor) or Iressa (gefitinib) for 12 or 24 hours in data set GSE20854.

The subject of assay [5] is JAK-STAT3 cellular signaling pathway in tamoxifen initiated, transformation inducible, breast cancer model system. The experiment in a line: JAK-STAT3 pathway activity prediction, lung model, data set GSE64536. As to conditions: FIG. 15.
Description: as §1, §2
The test system of assay [6] is JAK-STAT3 cellular signaling pathway in Sez-4 cell line (cutaneous T-cell lymphoma). The experiment in a line: JAK-STAT3 pathway activity prediction, blood model, data set GSE8685. As to conditions: cells starved of IL-2 for 16 hours, then IL-2 (200 U) resp. IL-15 (20 ng/mL); FIG. 16. As for the experimental part:
A Sez-4 cell line which was derived from a cutaneous T-cell lymphoma (data set GSE8685). […] IL-15 (20 ng/mL).

Setting [7] is: dosed for 12 hours, compared to undosed samples harvested at 12 hours.
The mark [8] stands for this setting: dosed for 24 hours, compared to undosed samples harvested at 24 hours.

Turning to `C#Cc1cccc(Nc2ncnc3cc(OCCOC)c(OCCOC)cc23)c1` [erlotinib], the “JAK-STAT3 pathway status of treated cells (odds that the TF element is present)” value in assay [1] is “JAK-STAT3 inactive”. For the same compound, the “predicted STAT3 activity of DMSO-treated cells compared to erlotinib-treated cells” value in assay [2] is “higher”.
With `COc1cc2ncnc(Nc3ccc(F)c(Cl)c3)c2cc1OCCCN1CCOCC1` [gefitinib], the “predicted STAT3 pathway activity (odds that the TF element is present)” value in assay [3], in assay [4] (setting [7]) and in assay [4] (setting [8]) was “decreased STAT3 pathway activity” throughout.
In the case of `CC/C(=C(\c1ccccc1)c1ccc(OCCN(C)C)cc1)c1ccccc1` [tamoxifen], the “predicted JAK-STAT3 activity of EtOH-treated cells compared to cells initiated with tamoxifen” value in assay [5] (4 hours, group 1 vs group 3) is given as “higher”; in assay [5] (24 hours, group 2 vs group 4) it was “higher”.
In the case of “IL-15: cytokine added to IL-2 starved Sez-4 cells”, in assay [6], the “predicted JAK-STAT3 pathway status compared to the control group” value is “active”.
Regarding “epidermal growth factor (NSDSECPLSHDGYCLHDGVCMYIEALDKYACNCVVGYIGERCQYRDLKWWELR; Epidermal growth factor; UniProt P01133 971-1023, looked up) [EGF, epidermal growth factor (EGF)]”, the “predicted STAT3 pathway activity (odds that the TF element is present)” value in assay [3], in assay [4] (setting [7]) and in assay [4] (setting [8]) was “higher STAT3 activity” each time.
